Assay results as given in PMC12931196, “Vm–MSI: a Vancomycin–Antimicrobial Peptide Conjugate Combating Resistant Bacteria and Broadening the Antimicrobial Spectrum” (Advanced Science, 2025).

Experiments:
[1] = system: P. aeruginosa ATCC27853; details: ATCC27853, 18 h
[2] = system: VRSA 52; details: 52, 18 h
[3] = system: S. aureus 15192; details: 15192, 18 h
[4] = system: E. faecalis ATCC29212; details: ATCC29212, 18 h
[5] = system: A. baumannii ATCC19606; details: ATCC19606, 18 h
[6] = system: S. typhimurium ATCC14028; details: ATCC14028, 18 h
[7] = system: MRSA ATCC43300; details: ATCC43300, 18 h
[8] = system: S. aureus CMCC26003; details: CMCC26003, 18 h
[9] = system: K. pneumoniae 9883; details: 9883, 18 h
[10] = system: E. coli ATCC25922; details: ATCC25922, 18 h
[11] = system: S. aureus ATCC29213; details: ATCC29213, 18 h
[12] = system: S. aureus 15772; details: 15772, 18 h
[13] = system: VRSA 11; details: 11, 18 h

| Structure (SMILES) | MIC [1] | MIC [2] | MIC [3] | MIC [4] | MIC [5] | MIC [6] | MIC [7] | MIC [8] | MIC [9] | MIC [10] | MIC [11] | MIC [12] | MIC [13] |
| --- | --- | --- | --- | --- | --- | --- | --- | --- | --- | --- | --- | --- | --- |
| CC[C@H](C)[C@H](NC(=O)[C@H](CCCNC(=N)N)NC(=O)[C@H](CCCNC(=N)N)NC(=O)[C@@H](N)CSC1CC(=O)N(CC2CCC(C(=O)N(C)[C@H](CC(C)C)C(=O)N[C@H]3C(=O)N[C@@H](CC(N)=O)C(=O)N[C@H]4C(=O)N[C@H]5C(=O)N[C@H](C(=O)N[C@H](C(=O)O)c6cc(O)cc(O)c6-c6cc5ccc6O)[C@H](O)c5ccc(c(Cl)c5)Oc5cc4cc(c5O[C@@H]4O[C@H](CO)[C@@H](O)[C@H](O)[C@H]4O[C@H]4C[C@](C)(N)[C@H](O)[C@H](C)O4)Oc4ccc(cc4Cl)[C@H]3O)CC2)C1=O)C(=O)N[C@@H](CCCNC(=N)N)C(=O)N1CCC[C@H]1C(=O)N[C@@H](CCCNC(=N)N)C(=O)N1CCC[C@H]1C(=O)N1CCC[C@H]1C(=O)N[C@@H](CCCNC(=N)N)C(=O)N[C@@H](CC(C)C)C(=O)N1CCC[C@H]1C(=O)N[C@@H](CCCNC(=N)N)C(=O)N1CCC[C@H]1C(=O)N[C@@H](CCCNC(=N)N)C(=O)N1CCC[C@H]1C(=O)N[C@@H](CCCNC(=N)N)C(=O)N1CCC[C@H]1C(=O)O (some centres unmarked) [Vm-Bac] | >100(>25.4) µg mL^−1 | 18.75(4.76) µg mL^−1 | 1.17(0.30) µg mL^−1 | 18.75(4.76) µg mL^−1 | 18.75(4.76) µg mL^−1 | 37.5(9.52) µg mL^−1 | 2.34(0.59) µg mL^−1 | 0.78(0.20) µg mL^−1 | >100(>25.4) µg mL^−1 | 18.75(4.76) µg mL^−1 | 2.34(0.59) µg mL^−1 | 2.34(0.59) µg mL^−1 | 18.75(4.76) µg mL^−1 |
| CC[C@H](C)[C@H](NC(=O)[C@@H](N)CSC1CC(=O)N(CC2CCC(C(=O)N(C)[C@H](CC(C)C)C(=O)N[C@H]3C(=O)N[C@@H](CC(N)=O)C(=O)N[C@H]4C(=O)N[C@H]5C(=O)N[C@H](C(=O)N[C@H](C(=O)O)c6cc(O)cc(O)c6-c6cc5ccc6O)[C@H](O)c5ccc(c(Cl)c5)Oc5cc4cc(c5O[C@@H]4O[C@H](CO)[C@@H](O)[C@H](O)[C@H]4O[C@H]4C[C@](C)(N)[C@H](O)[C@H](C)O4)Oc4ccc(cc4Cl)[C@H]3O)CC2)C1=O)C(=O)N[C@@H](CC(C)C)C(=O)N[C@@H](CCCNC(=N)N)C(=O)N[C@@H](Cc1c[nH]c2ccccc12)C(=O)N1CCC[C@H]1C(=O)N[C@@H](Cc1c[nH]c2ccccc12)C(=O)N[C@@H](Cc1c[nH]c2ccccc12)C(=O)N1CCC[C@H]1C(=O)N[C@@H](Cc1c[nH]c2ccccc12)C(=O)N[C@@H](CCCNC(=N)N)C(=O)N[C@@H](CCCNC(=N)N)C(=O)N[C@@H](CCCCN)C(N)=O (some centres unmarked) [Vm-Omi] | >100(>28) µg mL^−1 | 75(21.13) µg mL^−1 | 0.78(0.22) µg mL^−1 | >100(>28) µg mL^−1 | >100(>28) µg mL^−1 | >100(>28) µg mL^−1 | 4.69(1.32) µg mL^−1 | 0.78(0.22) µg mL^−1 | >100(>28) µg mL^−1 | >100(>28) µg mL^−1 | 1.17(0.33) µg mL^−1 | >100(>28) µg mL^−1 | 75(21.13) µg mL^−1 |
